Data from ChEMBL document CHEMBL4834472 (J Med Chem, 2021).
Activity calls are given as the source filed them. The calls are words filed in the database; no cut-off is given here.

Key:
CDK2/Cyclin A1 = CDK2/Cyclin A1 (Homo sapiens, UniProt P24941); format: protein-complex assay
Description: Inhibition of CDK2/Cyclin A1 (unknown origin) at 1 uM using histone H1 as substrate preincubated for 20 mins followed by 33P-ATP addition and measured after 2 hrs by filter binding method

[1] = target: Cyclin-dependent kinase 2/cyclin E1 (Homo sapiens, UniProt P24941); assay: Inhibition of CDK2/cyclin E1 (unknown origin) in presence of [32P]gammaATP by image analyser; format: protein-complex assay
CDK2/Cyclin A2 = CDK2/Cyclin A2 (Homo sapiens, UniProt P24941); assay: Inhibition of CDK2/cyclin A2 (unknown origin) in presence of [32P]gammaATP by image analyser; format: protein-complex assay
[2] = target: Cyclin-dependent kinase 4/cyclin D1 (Homo sapiens, UniProt P11802); assay: Inhibition of CDK4/cyclin D1 (unknown origin) in presence of [32P]gammaATP by image analyser; format: protein-complex assay
Sequence of Cyclin-dependent kinase 4/cyclin D1 (P11802 whole entry): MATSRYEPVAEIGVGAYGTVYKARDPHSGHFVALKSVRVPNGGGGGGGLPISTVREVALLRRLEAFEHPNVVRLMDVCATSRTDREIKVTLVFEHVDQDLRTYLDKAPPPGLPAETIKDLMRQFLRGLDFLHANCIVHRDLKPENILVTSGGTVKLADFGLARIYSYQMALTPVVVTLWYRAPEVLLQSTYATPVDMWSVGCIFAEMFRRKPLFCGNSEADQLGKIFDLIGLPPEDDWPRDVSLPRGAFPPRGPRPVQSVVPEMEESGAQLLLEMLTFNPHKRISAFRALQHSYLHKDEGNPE
Sequence of Cyclin-dependent kinase 4/cyclin D1 (P24385 whole entry, further chain): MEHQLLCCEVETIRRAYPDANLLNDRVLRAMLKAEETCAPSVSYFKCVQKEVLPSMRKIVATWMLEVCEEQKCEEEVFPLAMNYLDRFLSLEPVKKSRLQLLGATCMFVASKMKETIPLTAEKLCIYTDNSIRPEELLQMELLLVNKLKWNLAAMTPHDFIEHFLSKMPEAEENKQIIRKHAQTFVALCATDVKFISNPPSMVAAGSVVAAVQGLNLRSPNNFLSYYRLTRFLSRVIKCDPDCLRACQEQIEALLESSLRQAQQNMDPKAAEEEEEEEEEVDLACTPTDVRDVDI

CCRF-CEM = assay: Antiproliferative activity against human CCRF-CEM cells assessed as cell death measured after 72 hrs by resazurin dye based assay; format: functional
THP-1 = assay: Antiproliferative activity against human THP-1 cells assessed as cell death measured after 72 hrs by resazurin dye based assay; format: functional; details: THP-1, 72 h
[3] = test system: Receptor-type tyrosine-protein kinase FLT3 (Homo sapiens), P36888 [D835Y]; assay: Inhibition of FLT3 D835Y (unknown origin) assessed as residual activity at 500 nM
[4] = test system: Receptor-type tyrosine-protein kinase FLT3 (Homo sapiens), P36888 [UNDEFINED MUTATION]; assay: Inhibition of FLT3 ITD (unknown origin) assessed as residual activity at 500 nM
MV4-11 [5] = assay: Induction of apoptosis in human MV4-11 cells assessed as caspase 3 activation using fluorescent substrate Ac-DEVD-AMC at 100 nM incubated for 24 hrs by Western blot analysis; format: functional, cell-based
MV4-11 [6] = assay: Induction of apoptosis in human MV4-11 cells assessed as caspase 7 activation using fluorescent substrate Ac-DEVD-AMC at 100 nM incubated for 24 hrs by Western blot analysis; format: functional, cell-based
MV4-11 [7] = assay: Induction of apoptosis in human MV4-11 cells assessed as decrease in MCL1 level at 100 nM incubated for 24 hrs by Western blot analysis; format: functional, cell-based
MV4-11 [8] = assay: Antitumor activity against human MV4-11 cells xenografted in NRG mouse assessed as tumor growth inhibition treated at 50 mg/kg, po via gavage daily for 5 days in a week after 15 days of implantation measured after 21 days by luciferase based relative to control; format: functional; details: MV4-11, po, 504 h, time 21 day

Q: For `Cc1n[nH]c2ccc3nc(-c4c[nH]nc4C(F)(F)F)c4c(c3c12)CCCC4`, which IC50 (CDK2/Cyclin A1) is on record?
A: 430 nM

Q: What about the IC50 [1] of the same molecule?
A: 258 nM

Q: And the IC50 (CDK2/Cyclin A2)?
A: 430 nM

Q: What about the IC50 [2] of the same molecule?
A: > 1000 nM

Q: What about the IC50 (CCRF-CEM) of the same molecule?
A: 6510 nM

Q: And the IC50 (THP-1)?
A: 6800 nM

Q: And the Activity [3]?
A: < 2.5%

Q: What about the Activity [4] of the same molecule?
A: < 2.5%

Q: And the Activity (MV4-11 [5])?
A: Active

Q: And the Activity (MV4-11 [6])?
A: Active

Q: What about the Activity (MV4-11 [7]) of the same molecule?
A: Active

Q: What about the inhibition in vivo at 50 mg/kg (MV4-11 [8]) of the same molecule?
A: 90%
